From patent US9845310B2 (priority 2015, dated 2017)
Read-outs that look alike come from different tables or passages of the source.

Tests used:
APJ = APJ (Homo sapiens (Human), UniProt P35414); test: [35S]GTPγS binding assay on membranes from CHO cells stably expressing human APJ receptor; format: biochemical
Method: A GTPγS binding assay was performed on membranes prepared from CHO cells stably expressing human APJ receptor. The optimum experimental conditions for the concentrations of GDP, MgCl2, and NaCl in the assay buffer were initially determined. The assay was performed in assay buffer [20 mM HEPES, pH 7.5, 5 mM MgCl2, and 0.1% (w/v) BSA with 200 mM NaCl, 3 M GDP] and membranes expressing human APJ receptor/well along with WGA PS beads. The reaction was initiated by addition of 0.2 nM [^35S]GTPγS (Perkin Elmer Life and Analytical Sciences, Waltham USA) in the absence or presence of various ligands and incubated at RT for 90 min. Nonspecific binding was determined in the presence of 100 M GTPγS and was always less than 0.2% of total binding.

[1] = system: naive Sprague Dawley rat hearts; details: ex vivo isolated perfused rat heart, percent change over vehicle; for Isolated Heart Assay dP/dtmax(%): contractility; for Isolated Heart Assay dP/dtmin(%): relaxation (lusitropic)
[2] = read-out: Activity hAPJ SPA EC50 IP

Chain of APJ (P35414 whole entry, the tested form may be a part): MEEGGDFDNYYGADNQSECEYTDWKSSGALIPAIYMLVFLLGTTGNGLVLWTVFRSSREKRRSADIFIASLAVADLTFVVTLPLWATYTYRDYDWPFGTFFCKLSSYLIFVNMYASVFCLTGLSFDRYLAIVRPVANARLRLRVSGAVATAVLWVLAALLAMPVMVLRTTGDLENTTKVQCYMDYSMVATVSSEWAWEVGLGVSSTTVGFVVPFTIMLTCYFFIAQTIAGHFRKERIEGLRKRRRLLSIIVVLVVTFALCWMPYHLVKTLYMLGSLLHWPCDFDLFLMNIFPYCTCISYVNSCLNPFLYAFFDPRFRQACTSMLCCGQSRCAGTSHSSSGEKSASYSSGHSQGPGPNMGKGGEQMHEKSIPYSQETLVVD

SMILES	EC50 (APJ; Activity hAPJ SPA EC50 IP (μM)) [µM]	Isolated Heart Assay dP/dtmax(%) [1]	Isolated Heart Assay dP/dtmin(%) [1]	other results
COc1cccc(-c2nnc(NS(=O)(=O)C[C@H](O)c3ccc(C#N)cn3)n2-c2c(OC)cccc2OC)n1 (mixture of isomers) [Example 331.0, (R)-2-(5-cyanopyridin-2-yl)-N-(4-(2,6-dimethoxyphenyl)-5-(6-methoxypyridin-2-yl)-4H-1,2,4-triazol-3-yl)-2-hydroxyethanesulfonamide and (S)-2-(5-cyanopyridin-2-yl)-N-(4-(2,6-dimethoxyphenyl)-5-(6-methoxypyridin-2-yl)-4H-1,2,4-triazol-3-yl)-2-hydroxyethanesulfonamide]	0.00024	–	–	–
COc1cccc(OC)c1-n1c(NS(=O)(=O)[C@H](C)[C@H](OC(C)C)c2cnc(C)cn2)nnc1-c1cccc(C)n1 (single isomer, unassigned) [Example 824.0, (1S,2S)-N-(4-(2,6-dimethoxyphenyl)-5-(6-methylpyridin-2-yl)-4H-1,2,4-triazol-3-yl)-1-isopropoxy-1-(5-methylpyrazin-2-yl)propane-2-sulfonamide or (1R,2R)-N-(4-(2,6-dimethoxyphenyl)-5-(6-methylpyridin-2-yl)-4H-1,2,4-triazol-3-yl)-1-isopropoxy-1-(5-methylpyrazin-2-yl)propane-2-sulfonamide]	0.00047	–	–	–
COc1cccc(OC)c1-n1c(NS(=O)(=O)[C@@H](C)[C@H](OC)c2ncc(C)o2)nnc1-c1cncc(C)c1 (single isomer, unassigned) [Example 633.0, (1S,2R)-N-(4-(2,6-dimethoxyphenyl)-5-(5-methylpyridin-3-yl)-4H-1,2,4-triazol-3-yl)-1-methoxy-1-(5-methyloxazol-2-yl)propane-2-sulfonamide or (1R,2S)-N-(4-(2,6-dimethoxyphenyl)-5-(5-methylpyridin-3-yl)-4H-1,2,4-triazol-3-yl)-1-methoxy-1-(5-methyloxazol-2-yl)propane-2-sulfonamide]	–	–	–	EC50 (APJ; [2]): 0.0069 µM
COc1cccc(-c2nnc(NS(=O)(=O)[C@@H](C)[C@H](OC)c3ncc(C)cn3)n2-c2c(OC)ccnc2OC)n1 (single isomer, unassigned) [Example 771.0]	0.002	–	–	–
COc1cccc(OC)c1-n1c(NS(=O)(=O)[C@@H](C)Cc2ncc(F)cn2)nnc1-c1cccc(C)n1 (single isomer, unassigned) [Example 619.0, (S)-N-(4-(2,6-dimethoxyphenyl)-5-(6-methylpyridin-2-yl)-4H-1,2,4-triazol-3-yl)-1-(5-fluoropyrimidin-2-yl)propane-2-sulfonamide or (R)-N-(4-(2,6-dimethoxyphenyl)-5-(6-methylpyridin-2-yl)-4H-1,2,4-triazol-3-yl)-1-(5-fluoropyrimidin-2-yl)propane-2-sulfonamide]	0.0015	–	–	–
COc1cccc(-c2nnc(NS(=O)(=O)C[C@H](O)c3ccc(C#N)cc3S(C)(=O)=O)n2-c2c(OC)cccc2OC)n1 (mixture of isomers) [Example 481.0, (2S)-2-(4-cyano-2-(methylsulfonyl)phenyl)-N-(4-(2,6-dimethoxyphenyl)-5-(6-methoxy-2-pyridinyl)-4H-1,2,4-triazol-3-yl)-2-hydroxyethanesulfonamide and (2R)-2-(4-cyano-2-(methylsulfonyl)phenyl)-N-(4-(2,6-dimethoxyphenyl)-5-(6-methoxy-2-pyridinyl)-4H-1,2,4-triazol-3-yl)-2-hydroxyethanesulfonamide]	0.00024	–	–	–
COc1cccc(-c2nnc(NS(=O)(=O)[C@@H](C)[C@H](OC)c3ccc(C#N)cc3C#N)n2-c2c(OC)cccc2OC)n1 (mixture of isomers) [Example 473.0]	–	–	–	EC50 (APJ; [2]): 0.00023 µM
CO[C@H](c1ncc(C)cn1)[C@H](C)S(=O)(=O)Nc1nnc(-c2cncc(C)c2)n1-c1c(C)cccc1C [Example 673.0, (1R,2S)-N-(4-(2,6-dimethylphenyl)-5-(5-methyl-3-pyridinyl)-4H-1,2,4-triazol-3-yl)-1-methoxy-1-(5-methyl-2-pyrimidinyl)-2-propanesulfonamide 2,2,2-trifluoroacetate]	0.022	–	–	–
COc1cccc(OC)c1-n1c(NS(=O)(=O)[C@@H](C)Cc2ncc(F)cn2)nnc1-c1cnccc1C (mixture of isomers) [Example 216.0, (2S)-N-(4-(2,6-dimethoxyphenyl)-5-(4-methyl-3-pyridinyl)-4H-1,2,4-triazol-3-yl)-1-(5-fluoro-2-pyrimidinyl)-2-propanesulfonamide and (2R)-N-(4-(2,6-dimethoxyphenyl)-5-(4-methyl-3-pyridinyl)-4H-1,2,4-triazol-3-yl)-1-(5-fluoro-2-pyrimidinyl)-2-propanesulfonamide]	–	–	–	EC50 (APJ; [2]): 0.57 µM
COc1cccc(OC)c1-n1c(NS(=O)(=O)[C@@H](C)[C@H](OC)c2ncc(F)cn2)nnc1-c1cncc(C)c1 [Example 80.0, (1R,2S)-N-(4-(2,6-dimethoxyphenyl)-5-(5-methyl-3-pyridinyl)-4H-1,2,4-triazol-3-yl)-1-(5-fluoro-2-pyrimidinyl)-1-methoxy-2-propanesulfonamide]	–	5.0%	−2.7%	–
CCO[C@H](c1ncc(Cl)cn1)[C@H](C)S(=O)(=O)Nc1nnc(-c2cccnc2)n1-c1c(OC)cccc1OC [Example 430.0, (1R,2S)-1-(5-chloropyrimidin-2-yl)-N-(4-(2,6-dimethoxyphenyl)-5-(pyridin-3-yl)-4H-1,2,4-triazol-3-yl)-1-ethoxypropane-2-sulfonamide]	–	10.0%	9.7%	–
COc1cccc(OC)c1-n1c(NS(=O)(=O)[C@@H](C)[C@@H](OC(C)C)c2ncc(C)cn2)nnc1-c1cccnc1 (stereo in doubt) [Example 627.0, (1R,2R)-N-(4-(2,6-dimethoxyphenyl)-5-(3-pyridinyl)-4H-1,2,4-triazol-3-yl)-1-(1-methylethoxy)-1-(5-methyl-2-pyrimidinyl)-2-propanesulfonamide, (1S,2S)-N-(4-(2,6-dimethoxyphenyl)-5-(3-pyridinyl)-4H-1,2,4-triazol-3-yl)-1-(1-methylethoxy)-1-(5-methyl-2-pyrimidinyl)-2-propanesulfonamide]	–	No effect	No effect	–
COc1cccc(OC)c1-n1c(NS(=O)(=O)[C@H](C)[C@@H](OC)c2ccc(Cl)cn2)nnc1-c1cccnc1 (single isomer, unassigned) [Example 531.0, (1S,2R)-1-(5-chloro-2-pyridinyl)-N-(4-(2,6-dimethoxyphenyl)-5-(3-pyridinyl)-4H-1,2,4-triazol-3-yl)-1-methoxy-2-propanesulfonamide or (1R,2S)-1-(5-chloro-2-pyridinyl)-N-(4-(2,6-dimethoxyphenyl)-5-(3-pyridinyl)-4H-1,2,4-triazol-3-yl)-1-methoxy-2-propanesulfonamide]	–	4.1%	1.9%	–
CCO[C@H](c1ncc(F)cn1)[C@H](C)S(=O)(=O)Nc1nnc(-c2cncc(C)c2)n1-c1c(OC)cccc1OC [Example 79.0, (1R,2S)-N-(4-(2,6-dimethoxyphenyl)-5-(5-methyl-3-pyridinyl)-4H-1,2,4-triazol-3-yl)-1-ethoxy-1-(5-fluoro-2-pyrimidinyl)-2-propanesulfonamide]	–	10.0%	5.0%	–
